Source: article PMC10044725, “Antioxidant, Anti-Inflammatory and Anti-Diabetic Activities of Tectona grandis Methanolic Extracts, Fractions, and Isolated Compounds” (Antioxidants, 2023)
Marks after values point to notes of the source that are not given here.

What was measured:
α-glucosidase = experiment: α-Glucosidase inhibition assay (pNPG); format: biochemical; settings: for Inhibitory Rate (%): at a concentration of 50 µM; for IC50: compounds
Description: The inhibitory effect on α-glucosidase was measured according to the previous report method with slight modifications. The 20 mM sample dissolved in DMSO was diluted to 50 μM in PBS, 10 μL sample was mixed with 50 μL of 0.1 μ/mL α-glucosidase solution in 0.1 M phosphate buffer (pH 6.5) in a 96-well microplate and 10 μL PBS was used as a blank control. The mixture was incubated at 37 °C for 10 min before adding 40 µL of 5 mM 4-nitrophenyl-α-D-glucopyranoside to each well. After 30 min of incubation at 37 °C, the reaction was terminated by adding 50 μL of 0.1 M Na2CO3 to this mixture. The released 4-nitrophenol absorbance measurements were carried out using a microplate reader (SpectraMax190, USA) at 405 nm.

[1] = DPPH free radical scavenging assay; settings: half scavenging concentration; for EC50: isolated compounds, read-out: DPPH Assay SC50
Description: The DPPH free radical scavenging activities of T. grandis methanolic extract, different fractions and its compounds were conducted according to Dr. Yang et al.. […] The absorbance was measured using a microplate reader at 517 nm, and ascorbic acid was used as a positive control. The DPPH scavenging activity was calculated according to the following formula: Scavenging activity (%) = [1 − (A1 − A2)/(A3 − A4)] × 100% (1) where A1 is the OD value of the tested samples, A2 is the OD value of the sample control, A3 is the OD value of the negative control and A4 is the OD value of the blank control. The analysis was performed in triplicates and the results were described as SC50 values.

[2] = ABTS radical cation scavenging assay (Trolox equivalent)
Description: The ABTS radical cation (ABTS•+) scavenging activities were conducted in accordance with the instructions for the ABTS kit. The total antioxidant activity values were estimated using the Trolox equivalent antioxidant capacity test. The detection concentration of methanolic extract and different fractions was 80 μg/mL, and the detection concentration of compounds (1–23) was 50 μM. […] Then, 190 μL of ABTS working reagent was mixed with 10 μL sample and incubated at room temperature for 5 min. The absorbance was then measured using a microplate reader at 734 nm, and the scavenging activity was calculated according to Equation (2). The blank control group used DMSO to replace the sample. […] The analysis was performed in triplicates, 1.424, 0.0012 was a constant.

[3] = Ferric reducing antioxidant power (FRAP) assay; settings: Trolox equivalent
Description: The FRAP assay was determined in accordance with the instructions for the FRAP kit. The total antioxidant activity values were estimated using the Trolox equivalent antioxidant capacity test. Initially, the detection concentration of methanolic extract and different fractions was 80 μg/mL, and the detection concentration of compounds (1–23) was 50 μM. Then, 190 μL of FRAP working reagent was mixed with 10 μL sample and incubated at room temperature for 20 min. The absorbance was then measured using a microplate reader at 593 nm, and the scavenging activity was calculated according to Equation (3). The blank control group used DMSO to replace the sample. […] The analysis was performed in triplicates, 0.8054, 0.0134 was a constant.

pBR322 DNA = experiment: Prevention of AAPH-induced DNA oxidative damage; settings: AAPH 20 mM; p < 0.0001 vs model
Description: The effects of T. grandis methanolic extract, different fractions and its compounds 15, 19 and 23 on the prevention of DNA oxidative damage were carried out using the method of Han et al.. Initially, 8 μL pBR322 DNA (50 μg/mL) in PBS (0.1 M, pH 6.8) was mixed with different concentrations of T. grandis fractions and its compounds (12 μL) and incubated in water at 37 °C for 30 min. Then, 5 μL AAPH (20 mM) was added to the mixture and the reaction continued for 60 min. The control group used the same volume of PBS (0.1 M, pH 6.8) to replace AAPH. The pre-treated samples were mixed with 5 × DNA loading buffer, and the mixture (8 μL) was taken for 1.0% agarose gel electrophoresis for 25 min. After electrophoresis, the gels were stained with ethidium bromide for 20 min. Finally, images were taken using a DNA gel imaging system (ChampChemi 610, Beijing sage creation Co., Ltd. Beijing, China).

[4] = methanolic extract and fractions at 80 μg/mL

Compound | Inhibitory Rate (%) (α-glucosidase) | EC50 [1] | DPPH Assay SC50 ([1]; methanolic extract and fractions, ascorbic acid positive control) | ABTS Assay ([2]; compounds at 50 μM) | ABTS Assay [2, 4] | FRAP Assay ([3]; compounds at 50 μM) | FRAP Assay [3, 4] | IC50 (α-glucosidase) | concentration at which a protective effect against DNA oxidative damage begins (pBR322 DNA)
C[C@H]1O[C@H](O[C@H]2[C@H](O)[C@@H](O)[C@@H](O[C@H]3[C@H](O)[C@@H](O)C(O)O[C@@H]3CO)O[C@@H]2CO)[C@H](O)[C@@H](O)[C@@H]1N[C@H]1C=C(CO)[C@@H](O)[C@H](O)[C@H]1O (stereo partly drawn) [Acarbose, reference compound] | 99.53 ± 0.01 ^a % |  |  |  |  |  |  |  | 
O=C1O[C@H]([C@@H](O)CO)C(O)=C1O [Ascorbic acid, reference compound] |  | 13.45 ± 0.02 µM | 3.39 ± 0.98 ^e µg/mL | 0.85 ± 0.00 ^a mmol Trolox/L | 0.99 ± 0.00 ^a mmol Trolox/L | 1.01 ± 0.06 ^a mmol Trolox/L | 1.35 ± 0.02 ^b mmol Trolox/L |  | 
COc1ccc(-c2cc(=O)c3c(O)cc(O[C@@H]4O[C@H](C(=O)O)[C@@H](O)[C@H](O)[C@H]4O)cc3o2)cc1 [Compound 2, acacetin-7-O-β-glucuronide] | 31.35 ± 6.46 ^c % | 17.4 ± 1.08 µM |  | 0.92 ± 0.01 ^a mmol Trolox/L |  | 0.03 ± 0.01 ^c mmol Trolox/L |  | > 50 µM | 
O=c1cc(-c2ccc(O)cc2)oc2cc(O)cc(O)c12 [Compound 3, apigenin] | 29.06 ± 1.86 ^cd % | 5.22 ± 0.19 µM |  | 0.05 ± 0.00 ^d mmol Trolox/L |  | 0.01 ± 0.01 ^c mmol Trolox/L |  | > 50 µM | 
COC(=O)[C@H]1O[C@@H](Oc2cc(O)c3c(=O)cc(-c4ccc(O)cc4)oc3c2)[C@H](O)[C@@H](O)[C@@H]1O [Compound 4, apigenin-7-O-β-D-glucuronide methyl ester] | 68.54 ± 2.90 ^b % | 31.5 ± 1.75 µM |  | 0.21 ± 0.01 ^b mmol Trolox/L |  | 0.02 ± 0.00 ^c mmol Trolox/L |  | 14.2 ± 0.34 µM | 
COC(=O)[C@H]1O[C@@H](Oc2cc(-c3cc(=O)c4c(O)cc(O)cc4o3)ccc2O)[C@H](O)[C@@H](O)[C@@H]1O [Compound 5, vitegnoside] | 69.67 ± 2.20 ^b % | 9.92 ± 0.36 µM |  | 0.92 ± 0.00 ^a mmol Trolox/L |  | 1.02 ± 0.01 ^a mmol Trolox/L |  | 19.3 µM | 
O=c1cc(-c2ccc(O)c(O)c2)oc2cc(O)cc(O)c12 [Compound 6, luteolin] | 12.96 ± 2.08 ^d % | 22.1 ± 1.24 µM |  | 0.99 ± 0.07 ^a mmol Trolox/L |  | 0.37 ± 0.05 ^b mmol Trolox/L |  | > 50 µM | 
COc1cc(O)c2c(=O)c(O)c(-c3ccc(O)c(O)c3)oc2c1 [Compound 7, rhamnetin] | 85.13 ± 0.81 ^ab % | 16.9 ± 0.67 µM |  | 0.92 ± 0.07 ^a mmol Trolox/L |  | 0.33 ± 0.04 ^b mmol Trolox/L |  | 3.04 µM | 
O=c1c(O)c(-c2ccc(O)c(O)c2)oc2cc(O)cc(O)c12 [Compound 8, quercetin] | 1.27 ± 0.25 ^e % |  |  | 1.05 ± 0.01 ^a mmol Trolox/L |  | 0.01 ± 0.00 ^c mmol Trolox/L |  |  | 
Cc1ccc2c(c1O)C(=O)c1cccc(O)c1C2=O [Compound 9, isozyganein] | 3.13 ± 4.06 ^e % |  |  |  |  |  |  | > 50 µM | 
O=C1c2cc(CO)ccc2C(=O)c2c(O)cccc21 [Compound 10, 1-hydroxy-6-hydroxymethyl anthraquinone] | 1.77 ± 4.08 ^e % |  |  | 0.13± 0.00 ^c mmol Trolox/L |  | 0.01 ± 0.01 ^c mmol Trolox/L |  | > 50 µM | 
O=C(O)C1OC(Oc2cc(-c3cc(=O)c4c(O)cc(O)cc4o3)ccc2O)C(O)C(O)C1O (stereo not drawn) [Compound 11, luteolin-3′-O-glucuronide] | 4.57 ± 4.37 ^e % |  |  | 0.65 ± 0.00 ^b mmol Trolox/L |  | 0.01 ± 0.00 ^c mmol Trolox/L |  | > 50 µM | 
COc1cc(C)cc2c1C(=O)c1c(O)cc(O)cc1C2=O [Compound 12, 1-O-methylemodin] | 53.04 ± 0.36 ^bc % |  |  | 0.03 ± 0.00 ^d mmol Trolox/L |  |  |  |  | 
Cc1cc2c(cc1O)C(=O)c1ccccc1C2=O [Compound 14, 3-hydroxy-2-methyl-9,10-anthraquinone] | 20.03 ± 2.44 ^c % | 25.8 ± 0.57 µM |  | 0.09 ± 0.06 ^d mmol Trolox/L |  | 0.03 ± 0.00 ^c mmol Trolox/L |  | > 50 µM | 
O=C(O)c1c[nH]c2ccccc12 [Compound 16, 1H-indole-3-carboxylic acid] | 12.53 ± 0.76 ^d % | 12.3 ± 0.53 µM |  | 0.78 ± 0.01 ^a mmol Trolox/L |  | 0.28 ± 0.01 ^b mmol Trolox/L |  | > 50 µM | 
COc1ccc(/C=C/C=O)cc1O [Compound 17, 3-hydroxy-4-methoxycinnamaladehyde] | 8.69 ± 1.94 ^de % |  |  | 0.80 ± 0.01 ^a mmol Trolox/L |  |  |  | > 50 µM | 
COc1cc(C2Oc3c(OC)cc(CCCO)cc3C2CO)ccc1O (stereo not drawn) [Compound 19, rel-(2α,3β)-7-O-methylcedrusin] | 57.40 ± 1.32 ^bc % | 6.17 ± 0.06 µM |  | 0.85 ± 0.03 ^a mmol Trolox/L |  | 0.25 ± 0.01 ^b mmol Trolox/L |  |  | 5.0 mM
COc1cc(C(O)C(CO)Oc2c(OC)cc(/C=C/CO)cc2OC)cc(OC)c1O (stereo not drawn) [Compound 20, 7S,8R-syringylglycerol-8-O-4′-(synapyl alcohol) ether] | 40.30 ± 0.76 ^c % | 8.66 ± 0.43 µM |  | 0.67 ± 0.01 ^b mmol Trolox/L |  | 0.29 ± 0.00 ^b mmol Trolox/L |  | > 50 µM | 
COc1cc(O)c2c(c1O)C(=O)c1cc(C)ccc1C2=O [Compound 22, austrocortirubin] | 20.58 ± 1.30 ^c % |  |  | 0.32 ± 0.01 ^bc mmol Trolox/L |  |  |  | > 50 µM | 
